Measured values reported in the supplement of paper PMC10307832.

Assays:
Assay in all cases: relative viability (nuclei count vs DMSO), 5 days (fraction); higher = more cells survive
HOP-62 = system: HOP-62
In short: (§1)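 Lung cancer cell lines, seeded in 1536-well plates, were treated the following day by pin tool with a single drug or with five library-drug doses (not always all listed) in √10 steps on top of a fixed anchor-drug dose. Cells were fixed and nuclei stained in one step after 5 days, and nuclei were counted. Relative viability is the nuclei count for treated wells divided by that for vehicle wells, reported as medians of duplicate plates.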

HARA = system: HARA
In short: as §1

NCI-H1755 = system: NCI-H1755
In short: as §1

UMC-11 = system: UMC-11
In short: as §1

NCI-H727 = system: NCI-H727
In short: as §1

NCI-H1437 = system: NCI-H1437
In short: as §1

EMC-BAC-2 = system: EMC-BAC-2
In short: as §1

LK-2 = system: LK-2
In short: as §1

NCI-H1651 = system: NCI-H1651
In short: as §1

PC-3 [JPC-3] = system: PC-3 [JPC-3]
In short: as §1

NCI-H1563 = system: NCI-H1563
In short: as §1

ABC-1 = system: ABC-1
In short: as §1

NCI-H3122 = system: NCI-H3122
In short: as §1

NCI-H1734 = system: NCI-H1734
In short: as §1

NCI-H441 = system: NCI-H441
In short: as §1

COR-L23 = system: COR-L23
In short: as §1

NCI-H2347 = system: NCI-H2347
In short: as §1

NCI-H596 = system: NCI-H596
In short: as §1

RERF-LC-KJ = system: RERF-LC-KJ
In short: as §1

SK-LU-1 = system: SK-LU-1
In short: as §1

NCI-H1650 = system: NCI-H1650
In short: as §1

CAL-12T = system: CAL-12T
In short: as §1

Cc1cn(-c2cc(NC(=O)c3ccc(C)c(Nc4nccc(-c5cccnc5)n4)c3)cc(C(F)(F)F)c2)cn1 [Nilotinib] + CCNC(=O)c1noc(-c2cc(C(C)C)c(O)cc2O)c1-c1ccc(CN2CCOCC2)cc1 [Luminespib] (partner 0.01 µM) showed a relative viability (HOP-62; first compound 0.001 µM) of 0.727, a relative viability (HOP-62; first compound 0.003162 µM) of 0.792 and a relative viability (HOP-62; first compound 0.01 µM) of 0.839. It also gave a relative viability (HOP-62; first compound 0.03162 µM) of 0.786, a relative viability (HOP-62; first compound 0.1 µM) of 0.529 and a relative viability (HARA; first compound 0.001 µM) of 0.569. For the same compound, the relative viability (HARA; first compound 0.003162 µM) was 1.24, the relative viability (HARA; first compound 0.01 µM) was 1.14 and the relative viability (HARA; first compound 0.03162 µM) was 0.842. The relative viability (HARA; first compound 0.1 µM) was 0.482, the relative viability (NCI-H1755; first compound 0.001 µM) was 0.651 and the relative viability (NCI-H1755; first compound 0.003162 µM) was 0.418. It also gave a relative viability (NCI-H1755; first compound 0.01 µM) of 0.396, a relative viability (NCI-H1755; first compound 0.03162 µM) of 0.632 and a relative viability (NCI-H1755; first compound 0.1 µM) of 0.376. The relative viability (UMC-11; first compound 0.001 µM) was 0.978, the relative viability (UMC-11; first compound 0.003162 µM) was 1.22 and the relative viability (UMC-11; first compound 0.01 µM) was 1.26. The relative viability (UMC-11; first compound 0.1 µM) was 1.39, the relative viability (NCI-H727; first compound 0.001 µM) was 0.349 and the relative viability (NCI-H727; first compound 0.003162 µM) was 0.516. It also gave a relative viability (NCI-H727; first compound 0.01 µM) of 0.227, a relative viability (NCI-H727; first compound 0.03162 µM) of 0.281 and a relative viability (NCI-H727; first compound 0.1 µM) of 0.344. For the same compound, the relative viability (NCI-H1437; first compound 0.001 µM) was 1.11, the relative viability (NCI-H1437; first compound 0.003162 µM) was 1.3 and the relative viability (NCI-H1437; first compound 0.01 µM) was 1.26. The relative viability (NCI-H1437; first compound 0.03162 µM) was 0.885, the relative viability (NCI-H1437; first compound 0.1 µM) was 0.934 and the relative viability (EMC-BAC-2; first compound 0.001 µM) was 1.09. For the same compound, the relative viability (EMC-BAC-2; first compound 0.003162 µM) was 1.36, the relative viability (EMC-BAC-2; first compound 0.01 µM) was 1.22 and the relative viability (EMC-BAC-2; first compound 0.03162 µM) was 1.01. The relative viability (EMC-BAC-2; first compound 0.1 µM) was 1.11, the relative viability (LK-2; first compound 0.003162 µM) was 0.139 and the relative viability (LK-2; first compound 0.01 µM) was 0.207. The relative viability (LK-2; first compound 0.03162 µM) was 0.196, the relative viability (LK-2; first compound 0.1 µM) was 0.182 and the relative viability (NCI-H1651; first compound 0.001 µM) was 0.78. The relative viability (NCI-H1651; first compound 0.003162 µM) was 0.912, the relative viability (NCI-H1651; first compound 0.01 µM) was 0.902 and the relative viability (NCI-H1651; first compound 0.03162 µM) was 0.711. For the same compound, the relative viability (NCI-H1651; first compound 0.1 µM) was 0.753, the relative viability (PC-3 [JPC-3]; first compound 0.001 µM) was 0.548 and the relative viability (PC-3 [JPC-3]; first compound 0.003162 µM) was 0.627. For the same compound, the relative viability (PC-3 [JPC-3]; first compound 0.01 µM) was 0.869, the relative viability (PC-3 [JPC-3]; first compound 0.03162 µM) was 0.659 and the relative viability (PC-3 [JPC-3]; first compound 0.1 µM) was 0.526. For the same compound, the relative viability (NCI-H1563; first compound 0.001 µM) was 0.546, the relative viability (NCI-H1563; first compound 0.003162 µM) was 0.475 and the relative viability (NCI-H1563; first compound 0.01 µM) was 0.534. For the same compound, the relative viability (NCI-H1563; first compound 0.03162 µM) was 0.51, the relative viability (NCI-H1563; first compound 0.1 µM) was 0.441 and the relative viability (ABC-1; first compound 0.001 µM) was 0.508. For the same compound, the relative viability (ABC-1; first compound 0.003162 µM) was 0.227, the relative viability (ABC-1; first compound 0.01 µM) was 0.554 and the relative viability (ABC-1; first compound 0.03162 µM) was 1.28. For the same compound, the relative viability (ABC-1; first compound 0.1 µM) was 0.252, the relative viability (NCI-H3122; first compound 0.001 µM) was 0.109 and the relative viability (NCI-H3122; first compound 0.003162 µM) was 0.106. The relative viability (NCI-H3122; first compound 0.01 µM) was 0.0956, the relative viability (NCI-H3122; first compound 0.03162 µM) was 0.0805 and the relative viability (NCI-H3122; first compound 0.1 µM) was 0.047. The relative viability (NCI-H1734; first compound 0.001 µM) was 0.174, the relative viability (NCI-H1734; first compound 0.003162 µM) was 0.168 and the relative viability (NCI-H1734; first compound 0.01 µM) was 0.208. It also gave a relative viability (NCI-H1734; first compound 0.03162 µM) of 0.183, a relative viability (NCI-H1734; first compound 0.1 µM) of 0.169 and a relative viability (NCI-H441; first compound 0.001 µM) of 0.33. The relative viability (NCI-H441; first compound 0.003162 µM) was 0.375, the relative viability (NCI-H441; first compound 0.01 µM) was 0.322 and the relative viability (NCI-H441; first compound 0.03162 µM) was 0.413. It also gave a relative viability (NCI-H441; first compound 0.1 µM) of 0.304, a relative viability (COR-L23; first compound 0.001 µM) of 0.478 and a relative viability (COR-L23; first compound 0.003162 µM) of 0.557. The relative viability (COR-L23; first compound 0.01 µM) was 0.883, the relative viability (COR-L23; first compound 0.03162 µM) was 0.507 and the relative viability (COR-L23; first compound 0.1 µM) was 0.535. For the same compound, the relative viability (NCI-H2347; first compound 0.001 µM) was 0.344, the relative viability (NCI-H2347; first compound 0.003162 µM) was 0.263 and the relative viability (NCI-H2347; first compound 0.01 µM) was 0.712. The relative viability (NCI-H2347; first compound 0.03162 µM) was 0.589, the relative viability (NCI-H2347; first compound 0.1 µM) was 0.598 and the relative viability (NCI-H596; first compound 0.001 µM) was 1.16. The relative viability (NCI-H596; first compound 0.003162 µM) was 1.05, the relative viability (NCI-H596; first compound 0.01 µM) was 1.01 and the relative viability (NCI-H596; first compound 0.03162 µM) was 0.655. The relative viability (NCI-H596; first compound 0.1 µM) was 0.833, the relative viability (RERF-LC-KJ; first compound 0.001 µM) was 1.3 and the relative viability (RERF-LC-KJ; first compound 0.003162 µM) was 1.47. The relative viability (RERF-LC-KJ; first compound 0.01 µM) was 1.34, the relative viability (RERF-LC-KJ; first compound 0.03162 µM) was 0.946 and the relative viability (RERF-LC-KJ; first compound 0.1 µM) was 1.22. The relative viability (SK-LU-1; first compound 0.001 µM) was 0.19, the relative viability (SK-LU-1; first compound 0.003162 µM) was 0.212 and the relative viability (SK-LU-1; first compound 0.03162 µM) was 0.215. For the same compound, the relative viability (SK-LU-1; first compound 0.1 µM) was 0.217, the relative viability (NCI-H1650; first compound 0.001 µM) was 0.208 and the relative viability (NCI-H1650; first compound 0.003162 µM) was 0.203. The relative viability (NCI-H1650; first compound 0.01 µM) was 0.197, the relative viability (NCI-H1650; first compound 0.03162 µM) was 0.221 and the relative viability (NCI-H1650; first compound 0.1 µM) was 0.192. For the same compound, the relative viability (CAL-12T; first compound 0.001 µM) was 0.66, the relative viability (CAL-12T; first compound 0.003162 µM) was 0.335 and the relative viability (CAL-12T; first compound 0.01 µM) was 0.665. For the same compound, the relative viability (CAL-12T; first compound 0.03162 µM) was 0.222 and the relative viability (CAL-12T; first compound 0.1 µM) was 0.212.
